# Measurements: US6894068B2, “Substituted benzimidazoles as non-nucleoside inhibitors of reverse transcriptase” (The United States of America as represented by the …, priority 1997, dated 2005)
# Entries after “also recorded” stand apart in the source; their conditions may differ. Where two headings read alike, the source gives them in different places.
# Columns and labels:
# HIV-1 isolate L100I = experiment: Cytopathic cell killing assay, MT-4 cells, isolate L100I; assay type: cell-based
# From the text: (§1) The various HIV isolates tested in the Figures are those corresponding to wild-type virus (NL4-3) and the other strains listed by their RT mutations. The three 4×AZT isolates included in the Figures represent AZT drug-resistant variants. For example, the 4×AZT/L100I isolate has five mutations: four mutations confer increased resistance to AZT, and the other mutation is located within the NNRTI binding pocket. TZB and nevir. (nevirapine) are two well-known NNRTIs, included in this experiment for comparison purposes.
# (§2) In this Example, the antiviral and cellular toxicity of NNRTIs was investigated, using the cytopathic cell killing assay described by Yang (Yang et al., “Characteristics of a Group of Non-nucleoside Reverse Transcriptase Inhibitors with Structural Diversity and Potent Anti-Human Immunodeficiency Virus Activity,” Leukemia 9:S75-S85 [1995]). Briefly, in this method cells (e.g., the CEM-SS cell line, available from the NIAID AIDS Research and Reference Program [ARRRP]) were seeded at a density of 5×10^3 cells/well, into the wells of a 96-well microtiter plate. The cells were then infected with HIV virus (either mutant or WT), at a multiplicity of infection (MOI) previously determined to provide complete cell killing by 6 days of culture post-infection (e.g., MOI of 0.01-0.05). Each of the HIV isolates was pre-titered to induce equivalent levels of infection based on cell killing or virus production, prior to their use in these assays. A range of test compound concentrations was added to the wells in triplicate (e.g., serial half-log dilutions) to evaluate inhibition of HIV infection. Controls for each assay included drug controls (drug colorimetric control wells), drug cytotoxicity control wells (cells with drug), virus control wells (cells with virus), and cell viability controls (cells only). Positive control drugs (e.g. AZT and ddC) were also run in parallel.
# (§3) After six days of incubation at 37° C., cell viability was determined spectrophotometrically at 450 nm for each well, using the metabolic reduction of XTT to a soluble colored formazan. (See, Gartner and Popovic, “Virus Isolation and Production, in Aldovini and Walker (eds.), Techniques in HIV Research, Stockton Press, NY, pp. […] [1991]; and Nara and Fischinger, “Quantitative Infectivity Assay for HIV-1 and HIV-2, ” Nature 332:469-470 [1988]).
# (§4) The in vitro therapeutic index (TI50) was defined as the fold-difference between the EC50 and IC50. The results for the various compounds are included in FIGS. 8 and 19.
# HIV-1 WT virus (NL4-3) = experiment: microbe, parasite or virus in culture; assay type: cell-based; conditions: Human immunodeficiency virus 1, NL43, CEM-SS, read-out: EC50
# Description: Evaluation of these compounds for the inhibition of HIV-1 was determined as the fifty percent cell culture inhibitory concentration (CIC50) in CEMSS cell culture with WT virus (NL4-3).
# as §2, §3, §4
# HIV-1 isolate V106A = experiment: Cytopathic cell killing assay, MT-4 cells, isolate V106A; assay type: cell-based; conditions: Human immunodeficiency virus 1, MT4, read-out: EC50, isolate V106A, Table 8; MT-4 cells
# From the text: as §1
# (§5) In this Example, the antiviral and cellular toxicity of NNRTIs was investigated, using the cytopathic cell killing assay described by Yang (Yang et al., “Characteristics of a Group of Non-nucleoside Reverse Transcriptase Inhibitors with Structural Diversity and Potent Anti-Human Immunodeficiency Virus Activity,” Leukemia 9:S75-S85 [1995]). Briefly, in this method cells (e.g., the CEM-SS cell line, available from the NIAID AIDS Research and Reference Program [ARRRP]) were seeded at a density of 5×10^3 cells/well, into the wells of a 96-well microtiter plate. The cells were then infected with HIV virus (either mutant or WT), at a multiplicity of infection (MOI) previously determined to provide complete cell killing by 6 days of culture post-infection (e.g., MOI of 0.01-0.05). Each of the HIV isolates was pre-titered to induce equivalent levels of infection based on cell killing or virus production, prior to their use in these assays. A range of test compound concentrations was added to the wells in triplicate (e.g., serial half-log dilutions) to evaluate inhibition of HIV infection. […]
# (§6) After six days of incubation at 37° C., cell viability was determined spectrophotometrically at 450 nm for each well, using the metabolic reduction of XTT to a soluble colored formazan. (See, Gartner and Popovic, “Virus Isolation and Production, in Aldovini and Walker (eds.), Techniques in HIV Research, Stockton Press, NY, pp. […] [1991]; and Nara and Fischinger, “Quantitative Infectivity Assay for HIV-1 and HIV-2, ” Nature 332:469-470 [1988]). […]
# HIV-1 isolate Y188C = experiment: Cytopathic cell killing assay, MT-4 cells, isolate Y188C; assay type: cell-based; conditions: MT-4 cells
# From the text: as §1, §2, §3, §4
# HIV-1 isolate L74V = experiment: Cytopathic cell killing assay, MT-4 cells, isolate L74V; assay type: cell-based; conditions: MT-4 cells
# From the text: as §1, §2, §3, §4
# HIV-1 NL4-3 (WT) = experiment: Cytopathic cell killing assay, MT-4 cells, isolate NL4-3 (WT); assay type: cell-based
# From the text: as §1, §2, §3, §4
# HIV-1 isolate K101E = experiment: Cytopathic cell killing assay, MT-4 cells, isolate K101E; assay type: cell-based
# From the text: as §1, §2, §3, §4
# HIV-1 isolate A98G = experiment: Cytopathic cell killing assay, MT-4 cells, isolate A98G; assay type: cell-based; conditions: Human immunodeficiency virus 1, MT4, read-out: EC50, isolate A98G, Table 8; MT-4 cells
# From the text: as §1, §2, §3, §4
# HIV-1 isolate V179D = experiment: Cytopathic cell killing assay, MT-4 cells, isolate V179D; assay type: cell-based; conditions: Human immunodeficiency virus 1, MT4, read-out: EC50, isolate V179D, Table 8; MT-4 cells
# From the text: as §1, §2, §3, §4
# HIV-1 isolate K103N = experiment: Cytopathic cell killing assay, MT-4 cells, isolate K103N; assay type: cell-based; conditions: for activity against K103N, result in words: cytopathic cell killing assay
# From the text: as §1, §2, §3, §4
# HIV-1 WT RT = HIV-1 WT RT (Human immunodeficiency virus type 1 group M subtype B, UniProt P03366); experiment: biochemical; assay type: biochemical
# [1] = system: WT and HIV-1 variants containing amino acid substitutions in RT; assay type: cell-based; conditions: cytopathic cell killing assay, NNRTI-resistant HIV isolates
# From the text: In these Tables, antiviral data are reported as the quantity of drug in μM required to reduce cell killing or virus production by 50% (EC50). The various HIV isolates tested in the Figures are those corresponding to wild-type virus (NL4-3) and the other strains listed by their RT mutations. The three 4×AZT isolates included in the Figures represent AZT drug-resistant variants.
# (§7) Briefly, in this method cells (e.g., the CEM-SS cell line, available from the NIAID AIDS Research and Reference Program [ARRRP]) were seeded at a density of 5×10^3 cells/well, into the wells of a 96-well microtiter plate. The cells were then infected with HIV virus (either mutant or WT), at a multiplicity of infection (MOI) previously determined to provide complete cell killing by 6 days of culture post-infection (e.g., MOI of 0.01-0.05). Each of the HIV isolates was pre-titered to induce equivalent levels of infection based on cell killing or virus production, prior to their use in these assays. A range of test compound concentrations was added to the wells in triplicate (e.g., serial half-log dilutions) to evaluate inhibition of HIV infection. Controls for each assay included drug controls (drug colorimetric control wells), drug cytotoxicity control wells (cells with drug), virus control wells (cells with virus), and cell viability controls (cells only). Positive control drugs (e.g. AZT and ddC) were also run in parallel.
# as §3
# Antiviral and toxicity data were reported as the quantity of drug required to inhibit 50% of virus-induced cell killing or virus production (EC50), and the quantity of drug required to […] (IC50). The in vitro therapeutic index (TI50) was defined as the fold-difference between the EC50 and IC50.
# HIV-1 isolate V108I = experiment: Cytopathic cell killing assay, MT-4 cells, isolate V108I; assay type: cell-based
# From the text: as §1, §2, §3, §4
# HIV-1 isolate Y181C = experiment: Cytopathic cell killing assay, MT-4 cells, isolate Y181C; assay type: cell-based
# From the text: as §1, §2, §3, §4
# HIV-1 isolate M184I = experiment: Cytopathic cell killing assay, isolate M184I; assay type: cell-based; conditions: Human immunodeficiency virus 1, read-out: EC50, isolate M184I
# From the text: as §1, §5, §6
# [2] = system: HIV-1 isolate 4xAZT (AZT drug-resistant variant); experiment: Cytopathic cell killing assay, MT-4 cells, isolate 4xAZT; assay type: cell-based; conditions: Human immunodeficiency virus 1, MT4, read-out: EC50, isolate 4XAZT
# From the text: as §1, §5, §6
# HIV-1 isolate Y188H = experiment: Cytopathic cell killing assay, isolate Y188H; assay type: cell-based; conditions: Human immunodeficiency virus 1, read-out: EC50, isolate Y188H
# From the text: as §1, §2, §3, §4
# [3] = system: HIV-1 isolate 4xAZT/L100I; experiment: Cytopathic cell killing assay, MT-4 cells, isolate 4xAZT/L100I; assay type: cell-based; conditions: read-out: EC50, isolate 4XAZT/L1001; Table 9; MT-4 cells
# Description: The various HIV isolates tested in the Figures are those corresponding to wild-type virus (NL4-3) and the other strains listed by their RT mutations. The three 4×AZT isolates included in the Figures represent AZT drug-resistant variants.
# as §7, §3
# The in vitro therapeutic index (TI50) was defined as the fold-difference between the EC50 and IC50.
# [4] = Human immunodeficiency virus 1, MT4, read-out: EC50, isolate L100I, Table 10, values in μM
# [5] = Table 7, drug concentration required to reduce cell killing or virus production by 50%, WT
# [6] = Human immunodeficiency virus 1, MT4, read-out: EC50, isolate Y181C, Table 10, values in μM
structure (smiles),measurement,setting,value
"CC(=O)Nc1cccc2c1nc(-c1c(F)cccc1F)n2Cc1c(F)cccc1F [Compound 3600, 1-(2,6-difluorobenzyl)-2-(2,6-difluorophenyl)-4-acetamidobenzimidazole]",EC50,HIV-1 isolate L100I; [4],3.25 µM
same,EC50,"HIV-1 isolate L100I; Human immunodeficiency virus 1, MT4, read-out: EC50, isolate L1001, Table 8, MT-4 cells",2.1 µM
same,EC50,HIV-1 WT virus (NL4-3); [5],1480 nM
same,EC50,HIV-1 isolate V106A,> 20000 nM
same,EC50,"HIV-1 isolate Y188C; Human immunodeficiency virus 1, MT4, read-out: EC50, isolate Y188C, Table 8",> 10000 nM
same,EC50,"HIV-1 isolate L74V; Human immunodeficiency virus 1, MT4, read-out: EC50, isolate L74V, Table 8",1200 nM
same,EC50,"HIV-1 NL4-3 (WT); Human immunodeficiency virus 1, NL43, MT4, Table 8, MT-4 cells, read-out: EC50, isolate NL4-3",1.6 µM
same,EC50,"HIV-1 NL4-3 (WT); Human immunodeficiency virus 1, NL43, MT4, Table 10, values in μM, read-out: EC50, isolate NL4-3 (WT)",1.97 µM
same,EC50,"HIV-1 isolate K101E; Human immunodeficiency virus 1, MT4, read-out: EC50, isolate K101E, Table 8, MT-4 cells",> 20 µM
same,EC50,HIV-1 isolate A98G,4300 nM
same,EC50,HIV-1 isolate V179D,1700 nM
same,EC50,"HIV-1 isolate K103N; Human immunodeficiency virus 1, MT4, read-out: EC50, isolate K103N, Table 8, MT-4 cells",> 20 µM
same,EC50,"HIV-1 isolate K103N; Human immunodeficiency virus 1, MT4, read-out: EC50, isolate K103N, Table 10, values in μM",> 100 µM
same,IC50,HIV-1 WT RT,54700 nM
same,inhibition at 1 µM,"HIV-1 WT RT; Table 7, 1 μM drug, WT HIV-1 RT, read-out: % inhibn (1 μM)",24%
same,"cross-resistance profile, result in words",[1],inhibit HIV-1 better than TZB
same,melting point,,194 to 195 °C
same,EC50,"HIV-1 isolate V108I; Human immunodeficiency virus 1, MT4, read-out: EC50, isolate V1081, Table 8, MT-4 cells",5.3 µM
same,EC50,"HIV-1 isolate Y181C; Human immunodeficiency virus 1, MT4, read-out: EC50, isolate Y181C, Table 8, MT-4 cells",> 10 µM
same,EC50,HIV-1 isolate Y181C; [6],> 100 µM
"COc1cccc2c1nc(-c1c(F)cccc1F)n2Cc1c(F)cccc1F [Compound 5006, 1-(2,6-difluorobenzyl)-2-(2,6-difluorophenyl)-4-methoxylbenzimidazole]",EC50,HIV-1 isolate M184I,160 nM
same,EC50,HIV-1 isolate L100I; [4],0.16 µM
same,EC50,HIV-1 WT virus (NL4-3); [5],4.6 nM
same,EC50,"HIV-1 WT virus (NL4-3); Table 11, CEMSS/NL4-3, NRVC = no reduction in viral CPE",60 nM
same,EC50,"HIV-1 WT virus (NL4-3); text b130, cytopathic cell killing assay, WT",4.6 nM
same,EC50,"HIV-1 isolate K101E; Human immunodeficiency virus 1, MT4, read-out: EC50, isolate K101E, Table 10, values in μM",2.82 µM
same,EC50,HIV-1 isolate A98G,300 nM
same,EC50,[2],600 nM
same,"activity against K103N, result in words",HIV-1 isolate K103N,failed to show any activity
same,EC50,HIV-1 isolate Y188H,260 nM
same,"cross-resistance profile, result in words",[1],inhibit HIV-1 better than TZB; also recorded: equal or better against the various variants than nevirapine
same,"cross-resistance profile, result in words",[1]; listed as 44,retained the best activity against the different RT variants; also recorded: retains activity comparable with nevirapine
same,melting point,,154 to 155 °C
same,EC50,"HIV-1 isolate V108I; Human immunodeficiency virus 1, MT4, read-out: EC50, isolate V108I, Table 10, values in μM",2.82 µM
same,EC50,HIV-1 isolate Y181C; [6],0.26 µM
same,"activity against Y181C, result in words",HIV-1 isolate Y181C; cytopathic cell killing assay,maintaining activity
"Fc1cccc(F)c1C1SCc2nc3ccccc3n21 (centres unmarked) [TZB, 1-(2,6-difluorophenyl)-1H,3H-thiazolo[3,4-a]benzimidazole, reference compound]",EC50,[3],1100 nM
same,EC50,"HIV-1 isolate Y188C; Human immunodeficiency virus 1, MT4, read-out: EC50, isolate Y188C, Table 9",> 20000 nM
same,EC50,"HIV-1 isolate L74V; Human immunodeficiency virus 1, MT4, read-out: EC50, isolate L74V, Table 9",800 nM
same,EC50,"HIV-1 NL4-3 (WT); Human immunodeficiency virus 1, NL43, MT4, read-out: EC50, isolate NL4-3, Table 9, MT-4 cells",1 µM
same,"activity against K103N, result in words",HIV-1 isolate K103N,ineffective
